Tests used:
[1] = tested on: abdominal stretching after phenylbenzoquinone (PBQ); test: analgesic activity: blockade of abdominal stretching after phenylbenzoquinone (PBQ); assay type: in vivo, mice, Carworth CF-1 strain; parameters: key: (a): No significant activity noted at this dose level; conditions: s.c., 20 min. pre-treatment
Protocol: To test for the analgesic activity of the compounds of the present invention, a chemical nociceptive stimulus is employed, viz., blockade of abdominal stretching after phenylbenzoquinone (PBQ). […] The animals to be used are fasted for 15-16 hr. before the start of the experiment. Fifteen mice (groups of 5) weighing 11-15 g. are employed per dose level. Compounds are given by the oral or subcutaneous route. Drug pre-treatment times are 1 hr. (p.o.) and 20 min. (s.c.). Pairs of mice are injected with 2 mg./kg. of PBQ i.p. and placed in a lucite box (11×7×9.5 in.) maintained at 40° by a thermostatically controlled water bath. Starting 5 min. later the animals are observed for 5 min. and the number of abdominal stretching responses per animal is recorded. A stretch is considered to represent an intermittent contraction of the abdomen, hind limb extension, pelvic rotation, or opisthotonos (the abdomen of the mouse touches the floor of the cage and is dragged the length of the cage). The degree of analgesic protection is calculated on the basis of the suppression of writhing relative to control animals run on the same day (% MPE). This test reflects the ultimate clinical utility of the compounds as analgesic agents.

[2] = tested on: supramaximal electroconvulsive shock (ECS); test: anticonvulsant effect vs. supramaximal electroconvulsive shock (ECS) in mice; assay type: in vivo, Charles River males, Swiss CD strain; conditions: for ED50: Mus musculus, sc, mice, 1 hr. before ECS
Protocol: The anticonvulsant activity of the compounds of the present invention is determined by testing in mice, viz., Charles River males, Swiss CD strain (17-21 g.), fasted for 18 hr. before testing. Groups of mice are treated with a range of levels of the test compounds, and 1 hr. later with supramaximal electroconvulsive shock (ECS), administered for 0.2 sec. at 50 mA, 60 Hz, through transcorneal electrodes. After administration of the electrical stimulus, each mouse is observed for 10 sec. for the presence or absence of hind limb tonic extension. […] Blockade of supramaximal ECS in mice is a common laboratory test for clinical utility as an anticonvulsant, and certain known anticonvulsant drugs show activity in this test.

enkephalinase [3] = target: T1, enkephalinase (Rattus norvegicus, UniProt P07861); test: inhibition of enkephalinase enzyme in vitro (Tyr-gly-gly formation from 3H-leucine-enkephalin); assay type: biochemical, Sprague-Dawley CD male rats (whole brain minus cerebellum); conditions: pH 7.7, 37° C., 1 hour
T1 construct: whole brain (minus cerebellum) is removed from Sprague-Dawley CD male rats; from tissue; host or cells: rat whole brain minus cerebellum (Sprague-Dawley CD male rats, Charles River); washed membranes solubilized with 1% Triton X-100
T1 sequence (P07861 1-750): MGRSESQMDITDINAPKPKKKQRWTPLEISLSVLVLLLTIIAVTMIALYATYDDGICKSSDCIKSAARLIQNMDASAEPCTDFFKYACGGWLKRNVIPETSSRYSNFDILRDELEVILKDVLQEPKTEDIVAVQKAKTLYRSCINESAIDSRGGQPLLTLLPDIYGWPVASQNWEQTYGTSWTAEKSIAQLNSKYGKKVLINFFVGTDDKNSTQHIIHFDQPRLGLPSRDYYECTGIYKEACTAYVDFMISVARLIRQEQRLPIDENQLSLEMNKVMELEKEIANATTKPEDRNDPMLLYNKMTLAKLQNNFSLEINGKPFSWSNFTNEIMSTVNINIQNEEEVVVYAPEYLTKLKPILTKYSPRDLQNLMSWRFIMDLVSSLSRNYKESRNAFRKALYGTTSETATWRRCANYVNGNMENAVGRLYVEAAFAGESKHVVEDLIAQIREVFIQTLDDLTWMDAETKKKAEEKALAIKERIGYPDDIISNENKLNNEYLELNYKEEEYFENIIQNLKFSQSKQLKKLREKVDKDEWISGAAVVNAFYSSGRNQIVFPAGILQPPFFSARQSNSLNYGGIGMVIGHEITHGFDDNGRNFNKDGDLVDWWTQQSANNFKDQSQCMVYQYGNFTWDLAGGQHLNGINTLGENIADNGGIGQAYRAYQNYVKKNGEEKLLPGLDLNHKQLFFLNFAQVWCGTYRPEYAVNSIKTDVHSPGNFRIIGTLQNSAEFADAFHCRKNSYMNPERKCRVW
Protocol: The compounds of the present invention are studied in vitro for inhibition of enkephalinase enzyme in the following manner. To prepare the enzyme, whole brain (minus cerebellum) is removed from Sprague-Dawley CD male rats (Charles River Breeding Laboratories, Inc., Wilmington, MA; 200-250 g.) following decapitation. The tissue is homogenized (Polytron, Brinkmann Instruments, Inc., Westbury, NY) in 30 volumes (w/v) of ice-cold 50 mM Tris-HCl tris(hydroxymethyl)methylamine hydrochloride, Fisher Scientific Co., Fair Lawn, NJ) pH 7.7 buffer. The homogenate in centrifuged at 50,000×g. for 15 minutes. The pellet is resuspended in 50 mM Tris-HCl pH 7.7 buffer and centrifuged at 50,000×g. for 15 minutes. The resultant pellet is resuspended and centrifuged 3 additional times as described above. The membrane pellet is dispersed in 15 volumes of 50 mM Tris-HCl pH 7.7 buffer containing 1% Triton X-100 (Rohm and Haas, Philadelphia, PA) and incubated at 37° C. for 45 minutes. After centrifugation at 100,000×g. for 60 minutes, the solubilized enzymes are frozen in 2 ml. aliquots (this preparation can be stored frozen for 3 months).
One set of control tubes contains boiled enzyme (heated at 100° C. for 10 minutes) for blank. The reaction is stopped by boiling tubes for 10 minutes, followed by centrifugation for 1 minute in the Beckman Microfuge centrifuge. A ten microl aliquot of each supernatant is spotted on a thin layer chromatography (TLC) plate (Silica Gel 60, 20×20 cm, E. Merck, Darmstadt, Germany) using 1-8 samples per plate. Ten microl of a standard mixture consisting of 0.4 mg./ml. tyrosine (tyr, Mann Research Laboratories, Inc., New York, NY), 1 mg./ml. L-tyrosylglycine (tyr-gly Sigma), 1 mg./ml. L-tyrosylglycylglycine (tyr-gly-gly, Sigma) and 1 mg./ml. leucine-enkephalin (leu-E, Calbiochem-Behring Corp., La Jolla, CA) are spotted on top of each incubation mixture spot, as well as separately on each plate, to aid in zone indentification.
Plates are dried and placed in covered glass tanks equilibrated with 100 ml. of isopropanol:ethyl acetate:5% acetic acid (2:2:1). After development of the TLC plates, the separated products were visualized by spraying with a ninhydrin:acetone (0.5%, w/v) solution and heating for 10 minutes at 100° C. in a vacuum oven. Rf values of standard markers are: tyr, 0.33; tyr-gly, 0.20: tyr-gly-gly, 0.13; leu-E, 0.47. The radioactive spots are identified by the added markers and scraped into scintillation vials to which 1 ml. ethanol is added, followed by 10 ml. Aquasol-2 (New England Nuclear). Vials are kept overnight and counted for radioactivity in a liquid scintillation counter. Tyr-gly-gly formation is based on the difference between total counts per minute for this TLC zone minus the corresponding value obtained by using boiled enzyme (blank). […]

tail withdrawal test = conditions: mice; Roques et al.; cited from earlier work
enkephalinase [4] = conditions: Roques et al., Nature 288, 286-288 (1980); cited from earlier work
hot plate jump test = conditions: mice; Roques et al.; cited from earlier work

Structure (SMILES)	Percent Blockade of Abdominal Stretching (% MPE) After Phenylbenzoquinone ([1]; 320 mg./kg.)	ED50 [2] [mg/kg]	IC50 (enkephalinase [3]) [nM]	further results
CSCC[C@@H](CO)NC(=O)[C@@H](CS)Cc1ccc(Cl)cc1 [I (X=4-Cl, R=H, n=2, m=0, R^1=CH3)]	86 % MPE			
COc1ccc(C[C@H](CS)C(=O)N[C@H](CO)CCSC)cc1 [I (X=4-OCH3, R=H, n=2, m=0, R^1=CH3)]	62 % MPE			
CSCC[C@@H](CO)NC(=O)[C@@H](CS)Cc1ccccc1 [I (X=H, R=H, n=2, m=0, R^1=CH3)]	100 % MPE	178	480	Percent Blockade of Abdominal Stretching (% MPE) After Phenylbenzoquinone ([1]; 170 mg./kg.): 23 % MPE; Percent Blockade of Abdominal Stretching (% MPE) After Phenylbenzoquinone ([1]; 233 mg./kg.): 69 % MPE
CSCC[C@@H](CO)NC(=O)[C@H](CS)Cc1ccc(Cl)cc1 [II (X=4-Cl, R=H, n=2, m=0, R^1=CH3)]	75 % MPE			
COc1ccc(C[C@@H](CS)C(=O)N[C@H](CO)CCSC)cc1 [II (X=4-OCH3, R=H, n=2, m=0, R^1=CH3)]	46 % MPE			
CSCC[C@@H](CO)NC(=O)[C@H](CS)Cc1ccccc1 [II (X=H, R=H, n=2, m=0, R^1=CH3)]	(a)		9600	
CSCC[C@H](NC(=O)[C@H](CS)Cc1ccccc1)C(=O)O [III]		74.1	9.1	Percent Blockade of Abdominal Stretching (% MPE) After Phenylbenzoquinone ([1]; 160 mg./kg.): 57 % MPE
CSCC[C@H](NC(=O)[C@@H](CS)Cc1ccccc1)C(=O)O [IV]		141	70	Percent Blockade of Abdominal Stretching (% MPE) After Phenylbenzoquinone ([1]; 160 mg./kg.): 48 % MPE
O=C(O)CNC(=O)C(CS)Cc1ccccc1 (stereo not shown) [Thiorphan, N-(2-benzyl-3-mercaptopropionyl)glycine]		> 320		anticonvulsant activity (in words) ([2]; even at a much higher dose): inactive; analgesic (antinociceptive) activity, tail withdrawal test (in words) (tail withdrawal test): not in the so-called tail withdrawal test; enkephalinase inhibition (in words) (enkephalinase [4]): specific enkephalinase inhibitor; analgesic (antinociceptive) activity, hot plate jump test (in words) (hot plate jump test): elicit analgesic (antinociceptive) activity

— patent US4329495A, “Enkephalinase enzyme inhibiting compounds” (Pfizer Inc., priority 1981, dated 1982)
